Measurements as given in patent US12319679B2, “Morpholinyl, piperazinyl, oxazepanyl and diazepanyl O-glycoprotein-2-acetamido-2-deoxy-3-d-glucopyranosidase inhibitors” (BIOGEN MA INC., priority 2018, dated 2025).
Where a name gives a salt, the structure may show the parent alone.

These molecules were tested against T1, Recombinant full length human OGA enzyme (Homo sapiens, UniProt O60502) (assay: OGA Enzyme Inhibition Biochemical Assay). Conditions: 1 nM OGA, 100 μM 4-MUGlcNAc (Km), pH 6.4, 90 minutes at room temperature; 10-point dose-response starting from 20 μM.
T1 construct: Recombinant full length human OGA enzyme was purchased from Origene; purchased Origene
T1 sequence (O60502 1-916): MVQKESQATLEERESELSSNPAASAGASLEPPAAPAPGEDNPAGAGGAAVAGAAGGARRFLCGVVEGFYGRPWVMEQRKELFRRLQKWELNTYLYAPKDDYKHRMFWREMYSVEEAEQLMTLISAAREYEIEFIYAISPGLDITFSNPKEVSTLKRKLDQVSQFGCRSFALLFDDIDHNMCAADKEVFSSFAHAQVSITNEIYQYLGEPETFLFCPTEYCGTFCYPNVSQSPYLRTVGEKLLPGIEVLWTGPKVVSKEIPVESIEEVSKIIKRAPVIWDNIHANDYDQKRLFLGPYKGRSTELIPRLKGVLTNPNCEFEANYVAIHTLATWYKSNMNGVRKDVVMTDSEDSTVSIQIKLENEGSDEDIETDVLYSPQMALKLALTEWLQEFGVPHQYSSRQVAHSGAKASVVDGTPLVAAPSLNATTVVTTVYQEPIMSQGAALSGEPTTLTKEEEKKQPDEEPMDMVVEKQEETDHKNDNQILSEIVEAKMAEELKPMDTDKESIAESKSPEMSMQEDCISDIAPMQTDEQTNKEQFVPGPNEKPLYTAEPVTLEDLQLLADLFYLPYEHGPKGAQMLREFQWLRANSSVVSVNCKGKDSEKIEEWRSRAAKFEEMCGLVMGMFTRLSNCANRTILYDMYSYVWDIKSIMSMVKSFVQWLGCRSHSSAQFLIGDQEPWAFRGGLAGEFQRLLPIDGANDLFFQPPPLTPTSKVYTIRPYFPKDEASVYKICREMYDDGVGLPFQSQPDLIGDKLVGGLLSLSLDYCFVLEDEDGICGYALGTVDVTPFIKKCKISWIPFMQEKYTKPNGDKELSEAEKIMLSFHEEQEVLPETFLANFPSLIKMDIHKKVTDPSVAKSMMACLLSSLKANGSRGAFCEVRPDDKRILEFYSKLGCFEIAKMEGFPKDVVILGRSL
Protocol: OGA Enzyme Inhibition Biochemical Assay
Recombinant full length human OGA enzyme was purchased from Origene. 4-MUGlCNAc substrate was purchased from Sigma. All other reagents were purchased from Sigma or Fisher. Assay buffer consists of the McIlvaine buffer system, pH 6.4 (0.2M Na2HPO4 mixed with 0.1M citric acid) and 0.01% BSA. Reactions consist of 1 nM OGA, 100 μM 4-MUGlcNAc (Km), and compound in a final volume of 10 μl. Reactions were incubated for 90 minutes at room temperature and quenched with 40 μl of 3M glycine, pH 10 and read on a Perkin Elmer Envision plate reader (Ex: 355 nm/Em: 460 nm). Compounds were tested with a 10-point dose-response starting from 20 μM with a 4-fold dilution. Data was fit using GraphPad Prism using a 4-paramter fit with variable slope.
For `COc1nccc(C[C@@H]2CN(Cc3cnc(NC(C)=O)s3)CCO2)c1C` [Example 1-5, (R)—N-(5-((2-((2-methoxy-3-methylpyridin-4-yl)methyl)morpholino)methyl)thiazol-2-yl)acetamide], the IC50 was 61 nM. `CC(=O)Nc1ncc(CN2CCOCC(Cc3ncc(F)cn3)C2)s1` (single isomer, unassigned) [Example 1-45 Peak 1] was tested, and the IC50 was 1600 nM. `CC(=O)Nc1ncc(CN2C[C@@H](Cc3ncc(F)cn3)N(C(C)=O)C[C@@H]2C)s1` [Example 2-7, N-(5-(((2S,5R)-4-acetyl-5-((5-fluoropyrimidin-2-yl)methyl)-2-methylpiperazin-1-yl)methyl)thiazol-2-yl)acetamide] showed an IC50 of 9600 nM. With `CC(=O)Nc1ncc(CN2CC(C)OC(Cc3ncc(F)cn3)C2)s1` (single isomer, unassigned) [Example 1-35 Peak 1] the IC50 was 560 nM. For `CC(=O)Nc1ncc(CN2C[C@@H](COc3cc(C)nc(C)c3)N(C(C)=O)C[C@@H]2C)s1` [Example 3-3], the IC50 was 11000 nM. Work on `COc1cc(C[C@@H]2CN(Cc3cnc(NC(C)=O)s3)CCO2)ncn1` [Example 1-8, (R)—N-(5-((2-((6-methoxypyrimidin-4-yl)methyl)morpholino)methyl)thiazol-2-yl)acetamide] yielded an IC50 of 130 nM. `CC(=O)Nc1ncc(CN2C[C@@H](Cc3ccc(C)nc3)NC[C@@H]2C)s1` [Example 2-9, N-(5-(((2S,5R)-2-methyl-5-((6-methylpyridin-3-yl)methyl)piperazin-1-yl)methyl)thiazol-2-yl)acetamide] showed an IC50 of 45 nM. With `CC(=O)Nc1nc(F)c(CN2C[C@@H](Cc3ccc(C)nc3)OC[C@@H]2C)s1` [Example 1-49, N-(4-fluoro-5-(((2R,5S)-5-methyl-2-((6-methylpyridin-3 yl)methyl)morpholino)methyl)thiazol-2-yl)acetamide] the IC50 was 170 nM. With `CC(=O)Nc1ncc(CN2C[C@@H](Cc3ccnc(C)c3)OC[C@@H]2C)s1` [Example 1-32, N-(5-(((2R,5S)-5-methyl-2-((2-methylpyridin-4-yl)methyl)morpholino)methyl)thiazol-2-yl)acetamide] the IC50 was 1.4 nM. In the case of `COc1cc(CC2CN(Cc3cnc(NC(C)=O)s3)CCN2)ccn1` (single isomer, unassigned) [Example 2-22 Peak 1], the IC50 is reported as 18000 nM. With `CC(=O)Nc1ncc(CN2CCN(C)CC(COc3ncc(F)cn3)C2)s1` (stereo not shown) [Example 3-5, N-(5-((6-(((5-fluoropyrimidin-2-yl)oxy)methyl)-4-methyl-1,4-diazepan-1-yl)methyl)thiazol-2-yl)acetamide] the IC50 was > 20000 nM. `CCN1C[C@H](C)N(Cc2cnc(NC(C)=O)s2)C[C@H]1Cc1ccnc(C)c1` [Example 2-3, N-(5-(((2S,5R)-4-ethyl-2-methyl-5-((2-methylpyridin-4-yl)methyl)piperazin-1-yl)methyl)thiazol-2-yl)acetamide] was tested, and the IC50 was 26 nM. Molecule `CC(=O)Nc1ncc(CN2CCCOC(Cc3cc(C)nc(C)c3)C2)s1` (single isomer, unassigned) [Example 1-37 Peak 2] has an IC50 of 110 nM. In the case of `CC(=O)Nc1ncc(CN2CCNC(Cc3ncc(F)cn3)C2)s1` (single isomer, unassigned) [Example 2-20 Peak 2], the IC50 is reported as > 20000 nM. `CC(=O)Nc1ncc(CN2CCNC(Cc3ccnc(C)c3)C2)s1` (single isomer, unassigned) [Example 4-8 Peak 2] showed an IC50 of 490 nM. Work on `CC(=O)Nc1ncc(CN2CCOCC(Cc3ncc(F)cn3)C2)s1` (single isomer, unassigned) [Example 1-45 Peak 2] yielded an IC50 of 14 nM. In the case of `CC(=O)Nc1ncc(C(C)N2CCO[C@H](Cc3ncc(F)cn3)C2)s1` (single isomer, unassigned) [Example 1-23 Peak 1], the IC50 is reported as 19 nM. For `CC(=O)Nc1ncc(CN2CCO[C@H](Cc3cc(C)nc(C)c3)C2)s1` [Example 1-21, (R)—N-(5-((2-((2,6-dimethylpyridin-4-yl)methyl)morpholino)methyl)thiazol-2-yl)acetamide], the IC50 was 38 nM. For `CC(=O)Nc1ncc(CN2C[C@@H](COc3cc(C)nc(C)c3)NC[C@@H]2C)s1` [Example 3-1, N-(5-(((2S,5S)-5-(((2,6-dimethylpyridin-4-yl)oxy)methyl)-2-methylpiperazin-1-yl)methyl)thiazol-2-yl)acetamide], the IC50 was 21 nM. With `COc1cc(C[C@@H]2CN(Cc3cnc(NC(C)=O)s3)CCO2)ccn1` [Example 1-3, (R)—N-(5-((2-((2-methoxypyridin-4-yl)methyl)morpholino)methyl)thiazol-2-yl)acetamide] the IC50 was 43 nM. With `CC(=O)Nc1ncc(CN2CCN(C)[C@H](Cc3cc(C)nc(C)c3)C2)s1` [Example 4-3, (R)—N-(5-((3-((2,6-dimethylpyridin-4-yl)methyl)-4-methylpiperazin-1-yl)methyl)thiazol-2-yl)acetamide] the IC50 was 1600 nM. For `CC(=O)Nc1ncc(CN2CCCOC(Cc3cc(C)nc(C)c3)C2)s1` (racemic) [Example 1-36, N-(5-((2-((2,6-dimethylpyridin-4-yl)methyl)-1,4-oxazepan-4-yl)methyl)thiazol-2-yl)acetamide], the IC50 was 57 nM. `CC(=O)Nc1ncc(CN2C[C@@H](Cc3ccc(C)nc3)N(C)C[C@@H]2C)s1` [Example 2-11, N-(5-(((2S,5R)-2,4-dimethyl-5-((6-methylpyridin-3-yl)methyl)piperazin-1-yl)methyl)thiazol-2-yl)acetamide] was tested, and the IC50 was 45 nM. Work on `COc1cc(C[C@@H]2CN(Cc3cnc(NC(C)=O)s3)CCO2)ccc1F` [Example 1-6, (R)—N-(5-((2-(4-fluoro-3-methoxybenzyl)morpholino)methyl)thiazol-2-yl)acetamide] yielded an IC50 of 100 nM. `CC(=O)Nc1ncc(CN2CCOCC(Cc3ncc(F)cn3)C2)s1` (racemic) [Example 1-44, N-(5-((6-((5-fluoropyrimidin-2-yl)methyl)-1,4-oxazepan-4-yl)methyl)thiazol-2-yl)acetamide] was tested, and the IC50 was 32 nM. `CC(=O)Nc1ncc(CN2CCN[C@H](Cc3cc(C)nc(C)c3)C2)s1` [Example 4-1, (R)—N-(5-((3-((2,6-dimethylpyridin-4-yl)methyl)piperazin-1-yl)methyl)thiazol-2-yl)acetamide hydrochloride] gave an IC50 of 7000 nM. With `CC(=O)Nc1ncc(CN2CCO[C@H](Cc3ccnc(C)n3)C2)s1` [Example 1-14, (R)—N-(5-((2-((2-methylpyrimidin-4-yl)methyl)morpholino)methyl)thiazol-2-yl)acetamide] the IC50 was 180 nM. In the case of `CC(=O)Nc1ncc(CN2C[C@@H](Cc3ccnc(C)c3)N(C(C)=O)C[C@@H]2C)s1` [Example 2-4, N-(5-(((2S,5R)-4-acetyl-2-methyl-5-((2-methylpyridin-4-yl)methyl)piperazin-1-yl)methyl)thiazol-2-yl)acetamide], the IC50 is reported as 7500 nM. `COc1cc(CC2CN(Cc3cnc(NC(C)=O)s3)CCN2C)ccn1` (single isomer, unassigned) [Example 4-12 Peak 1] gave an IC50 of 950 nM. With `CC(=O)Nc1ncc(CN2CCO[C@H](Cc3ccnc(C)c3)C2)s1` [Example 1-20, (R)—N-(5-((2-((2-methylpyridin-4-yl)methyl)morpholino)methyl)thiazol-2-yl)acetamide] the IC50 was 84 nM. For `CC(=O)Nc1ncc(CN2CCN(C)[C@H](Cc3ccc(C)nc3)C2)s1` [Example 4-15, (R)—N-(5-((4-methyl-3-((6-methylpyridin-3-yl)methyl)piperazin-1-yl)methyl)thiazol-2-yl)acetamide], the IC50 was > 20000 nM.
